From PMC10838953

Key:
[1] = molecular target: CAMKK2 (Homo sapiens, UniProt Q96RR4); test: biochemical; conditions: read-out: %Ctrl @ 2000nM
[2] = molecular target: FLT3(D835H) (Homo sapiens, UniProt P36888, D835H); test: biochemical; conditions: read-out: %Ctrl @ 2000nM
[3] = molecular target: NLK (Homo sapiens, UniProt Q9UBE8); test: biochemical; conditions: read-out: %Ctrl @ 2000nM
[4] = molecular target: CDK5 (Homo sapiens, UniProt Q00535); test: biochemical; conditions: read-out: %Ctrl @ 2000nM
CDK5, sequence (Q00535 whole entry): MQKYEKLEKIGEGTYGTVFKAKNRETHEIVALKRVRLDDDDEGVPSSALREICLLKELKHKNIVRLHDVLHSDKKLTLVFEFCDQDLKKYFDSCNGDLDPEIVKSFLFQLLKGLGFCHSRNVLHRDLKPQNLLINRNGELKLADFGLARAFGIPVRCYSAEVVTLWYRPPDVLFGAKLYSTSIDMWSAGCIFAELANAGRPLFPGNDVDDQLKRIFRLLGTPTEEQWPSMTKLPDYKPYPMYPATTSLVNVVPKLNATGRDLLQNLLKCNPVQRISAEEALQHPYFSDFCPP

[5] = molecular target: MRCKB (Homo sapiens, UniProt Q9Y5S2); test: biochemical; conditions: read-out: %Ctrl @ 2000nM
[6] = molecular target: KIT(D816H) (Homo sapiens, UniProt P10721, D816H); test: biochemical; conditions: read-out: %Ctrl @ 2000nM
[7] = molecular target: CLK4 (Homo sapiens, UniProt Q9HAZ1); test: biochemical; conditions: read-out: %Ctrl @ 2000nM
CLK4, sequence (Q9HAZ1 whole entry): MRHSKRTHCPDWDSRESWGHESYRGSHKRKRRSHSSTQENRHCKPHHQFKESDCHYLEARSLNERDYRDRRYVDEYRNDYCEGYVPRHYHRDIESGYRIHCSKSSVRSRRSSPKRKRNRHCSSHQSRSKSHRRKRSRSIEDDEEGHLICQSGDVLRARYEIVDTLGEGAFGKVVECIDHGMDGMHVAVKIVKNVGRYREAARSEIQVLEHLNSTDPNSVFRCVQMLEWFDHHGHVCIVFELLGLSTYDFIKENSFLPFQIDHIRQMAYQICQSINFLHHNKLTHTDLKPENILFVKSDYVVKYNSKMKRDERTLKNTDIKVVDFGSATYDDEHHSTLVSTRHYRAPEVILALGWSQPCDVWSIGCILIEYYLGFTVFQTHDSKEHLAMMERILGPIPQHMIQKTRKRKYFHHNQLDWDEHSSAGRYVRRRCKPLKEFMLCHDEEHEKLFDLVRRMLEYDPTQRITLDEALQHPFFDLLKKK

[8] = molecular target: PRKCE (Homo sapiens, UniProt Q02156); test: biochemical; conditions: read-out: %Ctrl @ 2000nM
[9] = molecular target: LCK (Homo sapiens, UniProt P06239); test: biochemical; conditions: read-out: %Ctrl @ 2000nM
[10] = system: RPTEC (renal proximal tubule epithelial cells); test: cells; conditions: Homo sapiens, read-out: IC50 cell viability
[11] = molecular target: EPHB1 (Homo sapiens, UniProt P54762); test: biochemical; conditions: read-out: %Ctrl @ 2000nM
EPHB1, sequence (P54762 18-984): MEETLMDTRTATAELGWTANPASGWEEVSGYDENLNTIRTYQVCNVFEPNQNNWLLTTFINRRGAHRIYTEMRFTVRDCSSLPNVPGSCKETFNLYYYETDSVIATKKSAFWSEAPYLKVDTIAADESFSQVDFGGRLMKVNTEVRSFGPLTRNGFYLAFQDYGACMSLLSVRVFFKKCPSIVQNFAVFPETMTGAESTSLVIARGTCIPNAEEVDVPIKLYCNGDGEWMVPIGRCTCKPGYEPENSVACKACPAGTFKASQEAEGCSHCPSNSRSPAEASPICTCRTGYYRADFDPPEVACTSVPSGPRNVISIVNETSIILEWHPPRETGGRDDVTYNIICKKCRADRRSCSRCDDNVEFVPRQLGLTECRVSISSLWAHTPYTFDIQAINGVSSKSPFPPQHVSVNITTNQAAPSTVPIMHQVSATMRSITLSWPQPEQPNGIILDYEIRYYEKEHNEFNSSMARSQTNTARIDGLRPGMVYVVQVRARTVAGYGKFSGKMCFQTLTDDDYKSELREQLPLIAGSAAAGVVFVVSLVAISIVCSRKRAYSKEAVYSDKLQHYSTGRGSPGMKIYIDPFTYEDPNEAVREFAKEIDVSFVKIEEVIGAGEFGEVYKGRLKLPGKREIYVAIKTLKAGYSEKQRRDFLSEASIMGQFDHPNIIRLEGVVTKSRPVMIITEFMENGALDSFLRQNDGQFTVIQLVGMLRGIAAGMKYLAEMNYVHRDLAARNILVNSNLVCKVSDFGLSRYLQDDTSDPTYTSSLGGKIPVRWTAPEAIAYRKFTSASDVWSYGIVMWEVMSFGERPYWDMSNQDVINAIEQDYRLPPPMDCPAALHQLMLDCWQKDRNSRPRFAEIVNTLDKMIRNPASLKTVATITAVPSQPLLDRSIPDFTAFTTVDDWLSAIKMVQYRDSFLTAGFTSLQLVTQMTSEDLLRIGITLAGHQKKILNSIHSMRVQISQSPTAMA

[12] = molecular target: p38-gamma (Homo sapiens, UniProt P53778); test: biochemical; conditions: read-out: %Ctrl @ 2000nM
[13] = molecular target: MKNK1 (Homo sapiens, UniProt Q9BUB5); test: biochemical; conditions: read-out: %Ctrl @ 2000nM
[14] = molecular target: MAP4K4 (Homo sapiens, UniProt O95819); test: biochemical; conditions: read-out: %Ctrl @ 2000nM
[15] = molecular target: TEC (Homo sapiens, UniProt P42680); test: biochemical; conditions: read-out: %Ctrl @ 2000nM
[16] = molecular target: GCN2(Kin.Dom.2,S808G) (Homo sapiens, UniProt Q9P2K8, S808G); test: biochemical; conditions: read-out: %Ctrl @ 2000nM
[17] = molecular target: MAP3K3 (Homo sapiens, UniProt Q99759); test: biochemical; conditions: read-out: %Ctrl @ 2000nM
MAP3K3, sequence (Q99759 whole entry): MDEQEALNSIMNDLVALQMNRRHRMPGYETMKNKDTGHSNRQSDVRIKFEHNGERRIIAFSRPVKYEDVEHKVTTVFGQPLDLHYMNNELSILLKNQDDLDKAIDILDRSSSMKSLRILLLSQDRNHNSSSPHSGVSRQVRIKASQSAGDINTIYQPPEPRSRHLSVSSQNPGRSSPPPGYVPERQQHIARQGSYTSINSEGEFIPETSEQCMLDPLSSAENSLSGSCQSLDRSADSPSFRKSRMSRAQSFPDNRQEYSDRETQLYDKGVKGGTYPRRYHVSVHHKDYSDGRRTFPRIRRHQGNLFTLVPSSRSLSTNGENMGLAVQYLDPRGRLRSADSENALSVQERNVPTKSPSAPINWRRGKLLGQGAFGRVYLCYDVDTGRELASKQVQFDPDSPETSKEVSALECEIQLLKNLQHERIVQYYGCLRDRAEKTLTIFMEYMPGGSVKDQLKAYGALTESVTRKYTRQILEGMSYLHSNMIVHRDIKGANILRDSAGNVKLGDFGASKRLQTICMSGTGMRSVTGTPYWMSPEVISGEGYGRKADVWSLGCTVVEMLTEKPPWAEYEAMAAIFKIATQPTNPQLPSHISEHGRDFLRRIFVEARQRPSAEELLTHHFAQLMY

[18] = molecular target: AKT3 (Homo sapiens, UniProt Q9Y243); test: biochemical; conditions: read-out: %Ctrl @ 2000nM
[19] = molecular target: PKN1 (Homo sapiens, UniProt Q16512); test: biochemical; conditions: read-out: %Ctrl @ 2000nM
PKN1, sequence (Q16512 whole entry): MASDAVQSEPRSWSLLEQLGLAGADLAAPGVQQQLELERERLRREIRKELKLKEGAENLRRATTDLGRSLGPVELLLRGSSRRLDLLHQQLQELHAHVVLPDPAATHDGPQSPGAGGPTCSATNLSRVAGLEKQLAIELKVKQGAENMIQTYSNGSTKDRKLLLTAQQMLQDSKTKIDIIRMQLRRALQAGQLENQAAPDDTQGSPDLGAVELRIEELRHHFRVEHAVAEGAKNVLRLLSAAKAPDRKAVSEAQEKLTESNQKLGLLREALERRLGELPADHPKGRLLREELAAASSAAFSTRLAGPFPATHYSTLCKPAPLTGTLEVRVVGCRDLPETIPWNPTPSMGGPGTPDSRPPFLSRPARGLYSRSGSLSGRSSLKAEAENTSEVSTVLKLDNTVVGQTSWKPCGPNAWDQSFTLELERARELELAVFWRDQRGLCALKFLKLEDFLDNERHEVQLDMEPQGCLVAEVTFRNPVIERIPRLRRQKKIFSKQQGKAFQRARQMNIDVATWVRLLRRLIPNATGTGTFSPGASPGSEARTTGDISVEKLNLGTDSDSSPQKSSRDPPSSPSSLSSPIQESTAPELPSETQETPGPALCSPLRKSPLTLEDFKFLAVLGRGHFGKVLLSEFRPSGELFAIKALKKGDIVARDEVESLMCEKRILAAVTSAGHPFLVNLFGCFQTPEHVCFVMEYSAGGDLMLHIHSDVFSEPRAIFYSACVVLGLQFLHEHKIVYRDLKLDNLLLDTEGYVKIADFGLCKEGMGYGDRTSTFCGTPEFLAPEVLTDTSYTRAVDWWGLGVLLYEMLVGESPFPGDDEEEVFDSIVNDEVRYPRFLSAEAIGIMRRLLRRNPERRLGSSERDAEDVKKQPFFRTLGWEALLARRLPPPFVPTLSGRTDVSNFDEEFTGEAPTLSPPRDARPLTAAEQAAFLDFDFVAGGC

[20] = molecular target: BMPR1B (Homo sapiens, UniProt O00238); test: biochemical; conditions: read-out: %Ctrl @ 2000nM
[21] = molecular target: ABL1(M351T)-phosphorylated (Homo sapiens, UniProt P00519, M351T); test: biochemical; conditions: read-out: %Ctrl @ 2000nM
[22] = molecular target: CAMK1B (Homo sapiens, UniProt Q6P2M8); test: biochemical; conditions: read-out: %Ctrl @ 2000nM
[23] = molecular target: TNNI3K (Homo sapiens, UniProt Q59H18); test: biochemical; conditions: read-out: %Ctrl @ 2000nM
[24] = molecular target: ADCK4 (Homo sapiens, UniProt Q96D53); test: biochemical; conditions: read-out: %Ctrl @ 2000nM
[25] = molecular target: JNK2 (Homo sapiens, UniProt P45984); test: biochemical; conditions: read-out: %Ctrl @ 2000nM
[26] = molecular target: NEK5 (Homo sapiens, UniProt Q6P3R8); test: biochemical; conditions: read-out: %Ctrl @ 2000nM
[27] = molecular target: CK2α′ (Homo sapiens, UniProt P19784); conditions: 36 ng recombinant catalytic subunits
CK2α′, sequence (P19784 whole entry): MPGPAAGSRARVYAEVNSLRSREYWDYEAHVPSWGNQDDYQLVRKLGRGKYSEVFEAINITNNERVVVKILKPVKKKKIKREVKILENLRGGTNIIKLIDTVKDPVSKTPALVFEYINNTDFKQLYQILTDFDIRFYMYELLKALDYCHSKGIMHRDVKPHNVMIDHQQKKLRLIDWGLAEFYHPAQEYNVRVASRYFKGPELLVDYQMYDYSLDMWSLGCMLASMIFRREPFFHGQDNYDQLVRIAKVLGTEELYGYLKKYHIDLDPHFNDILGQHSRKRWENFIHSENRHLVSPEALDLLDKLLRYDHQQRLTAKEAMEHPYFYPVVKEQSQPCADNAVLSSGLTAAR

[28] = molecular target: ABL1(F317L)-phosphorylated (Homo sapiens, UniProt P00519, F317L); test: biochemical; conditions: read-out: %Ctrl @ 2000nM
[29] = molecular target: ROCK1 (Homo sapiens, UniProt Q13464); test: biochemical; conditions: read-out: %Ctrl @ 2000nM
[30] = molecular target: PCTK2 (Homo sapiens, UniProt Q00537); test: biochemical; conditions: read-out: %Ctrl @ 2000nM
[31] = molecular target: CHEK1 (Homo sapiens, UniProt O14757); test: biochemical; conditions: read-out: %Ctrl @ 2000nM
[32] = molecular target: SBK1 (Homo sapiens, UniProt Q52WX2); test: biochemical; conditions: read-out: %Ctrl @ 2000nM
[33] = molecular target: KIT(L576P) (Homo sapiens, UniProt P10721, L576P); test: biochemical; conditions: read-out: %Ctrl @ 2000nM
[34] = molecular target: NEK7 (Homo sapiens, UniProt Q8TDX7); test: biochemical; conditions: read-out: %Ctrl @ 2000nM
[35] = molecular target: WNK4 (Homo sapiens, UniProt Q96J92); test: biochemical; conditions: read-out: %Ctrl @ 2000nM
WNK4, sequence (Q96J92 whole entry): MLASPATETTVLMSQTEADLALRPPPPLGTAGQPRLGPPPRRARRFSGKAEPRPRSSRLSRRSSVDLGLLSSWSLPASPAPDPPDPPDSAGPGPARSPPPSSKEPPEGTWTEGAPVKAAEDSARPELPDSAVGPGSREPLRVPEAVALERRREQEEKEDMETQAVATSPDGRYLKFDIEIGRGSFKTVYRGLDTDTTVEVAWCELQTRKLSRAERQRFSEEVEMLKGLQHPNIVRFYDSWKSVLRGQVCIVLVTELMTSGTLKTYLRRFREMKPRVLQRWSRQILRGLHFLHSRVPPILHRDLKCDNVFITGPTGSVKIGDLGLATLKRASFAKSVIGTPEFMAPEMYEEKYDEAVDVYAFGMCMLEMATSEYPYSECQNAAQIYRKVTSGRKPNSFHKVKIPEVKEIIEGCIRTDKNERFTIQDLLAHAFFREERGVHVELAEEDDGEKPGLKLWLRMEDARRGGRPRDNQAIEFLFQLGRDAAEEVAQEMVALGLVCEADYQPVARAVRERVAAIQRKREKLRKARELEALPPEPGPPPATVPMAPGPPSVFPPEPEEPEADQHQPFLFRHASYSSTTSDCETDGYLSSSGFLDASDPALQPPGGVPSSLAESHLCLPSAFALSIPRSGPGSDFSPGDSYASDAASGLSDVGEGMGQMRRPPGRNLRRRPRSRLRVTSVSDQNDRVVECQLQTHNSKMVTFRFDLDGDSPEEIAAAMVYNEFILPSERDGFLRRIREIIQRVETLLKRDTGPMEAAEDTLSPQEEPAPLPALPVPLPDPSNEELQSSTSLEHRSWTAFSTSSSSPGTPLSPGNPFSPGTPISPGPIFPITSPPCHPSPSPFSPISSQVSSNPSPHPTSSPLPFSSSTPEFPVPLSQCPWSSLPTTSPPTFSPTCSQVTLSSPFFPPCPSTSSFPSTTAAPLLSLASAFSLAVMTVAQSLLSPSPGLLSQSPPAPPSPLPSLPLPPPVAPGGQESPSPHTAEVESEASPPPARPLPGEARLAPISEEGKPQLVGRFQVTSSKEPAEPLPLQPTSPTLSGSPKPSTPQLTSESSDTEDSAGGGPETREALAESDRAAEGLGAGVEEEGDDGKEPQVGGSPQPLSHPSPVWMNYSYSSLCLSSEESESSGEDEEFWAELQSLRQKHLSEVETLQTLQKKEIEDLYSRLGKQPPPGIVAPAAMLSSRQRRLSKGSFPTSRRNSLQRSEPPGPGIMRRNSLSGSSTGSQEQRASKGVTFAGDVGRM

[36] = molecular target: PKNB(M.tuberculosis) (Mycobacterium tuberculosis, UniProt P9WI81); test: biochemical; conditions: read-out: %Ctrl @ 2000nM
[37] = molecular target: EPHA8 (Homo sapiens, UniProt P29322); test: biochemical; conditions: read-out: %Ctrl @ 2000nM
[38] = molecular target: MYLK4 (Homo sapiens, UniProt Q86YV6); test: biochemical; conditions: read-out: %Ctrl @ 2000nM
[39] = molecular target: GRK7 (Homo sapiens, UniProt Q8WTQ7); test: biochemical; conditions: read-out: %Ctrl @ 2000nM
[40] = molecular target: AMPK-alpha2 (Homo sapiens, UniProt P54646); test: biochemical; conditions: read-out: %Ctrl @ 2000nM
[41] = molecular target: MST1 (Homo sapiens, UniProt Q13043); test: biochemical; conditions: read-out: %Ctrl @ 2000nM
[42] = molecular target: IKK-beta (Homo sapiens, UniProt O14920); test: biochemical; conditions: read-out: %Ctrl @ 2000nM

SMILES: CC(C)COC(=O)c1[nH]c2ccc(F)cc2c1-c1cn(CC2CCN(CCNS(=O)(=O)c3ccc(CC(C)C)cc3)CC2)nn1 [AB668, isobutyl 5-fluoro-3-(1-((1-(2-((4-isobutylphenyl)sulfonamido)ethyl)piperidin-4-yl)methyl)-1H-1,2,3-triazol-4-yl)-1H-indole-2-carboxylate]
- remaining activity at 2 µM [1]: 81%
- remaining activity at 2 µM [2]: 89%
- remaining activity at 2 µM [3]: 77%
- remaining activity at 2 µM [4]: 99%
- remaining activity at 2 µM [5]: 90%
- remaining activity at 2 µM [6]: 58%
- remaining activity at 2 µM [7]: 97%
- remaining activity at 2 µM [8]: 98%
- remaining activity at 2 µM [9]: 99%
- IC50 [10]: > 100 µM
- remaining activity at 2 µM [11]: 100%
- remaining activity at 2 µM [12]: 74%
- remaining activity at 2 µM [13]: 63%
- remaining activity at 2 µM [14]: 96%
- remaining activity at 2 µM [15]: 95%
- remaining activity at 2 µM [16]: 80%
- remaining activity at 2 µM [17]: 100%
- remaining activity at 2 µM [18]: 92%
- remaining activity at 2 µM [19]: 91%
- remaining activity at 2 µM [20]: 100%
- remaining activity at 2 µM [21]: 86%
- remaining activity at 2 µM [22]: 100%
- remaining activity at 2 µM [23]: 96%
- remaining activity at 2 µM [24]: 80%
- remaining activity at 2 µM [25]: 92%
- remaining activity at 2 µM [26]: 84%
- efficacy on the catalytic activity of CK2α and CK2α′ [27]: very similar efficacy
- remaining activity at 2 µM [28]: 78%
- remaining activity at 2 µM [29]: 88%
- remaining activity at 2 µM [30]: 96%
- remaining activity at 2 µM [31]: 95%
- remaining activity at 2 µM [32]: 88%
- remaining activity at 2 µM [33]: 91%
- remaining activity at 2 µM [34]: 93%
- remaining activity at 2 µM [35]: 96%
- remaining activity at 2 µM [36]: 100%
- remaining activity at 2 µM [37]: 92%
- remaining activity at 2 µM [38]: 100%
- remaining activity at 2 µM [39]: 97%
- remaining activity at 2 µM [40]: 100%
- remaining activity at 2 µM [41]: 97%
- remaining activity at 2 µM [42]: 91%
